Earlier results, collected in US7402581B2, “Azetidine compounds” (Albireo AB, priority 2003, dated 2008).

Molecular target: T1, Human Neurokinin-2 (NK2) Receptor (Homo sapiens, UniProt P21452)
T1 sequence (P21452 1-398): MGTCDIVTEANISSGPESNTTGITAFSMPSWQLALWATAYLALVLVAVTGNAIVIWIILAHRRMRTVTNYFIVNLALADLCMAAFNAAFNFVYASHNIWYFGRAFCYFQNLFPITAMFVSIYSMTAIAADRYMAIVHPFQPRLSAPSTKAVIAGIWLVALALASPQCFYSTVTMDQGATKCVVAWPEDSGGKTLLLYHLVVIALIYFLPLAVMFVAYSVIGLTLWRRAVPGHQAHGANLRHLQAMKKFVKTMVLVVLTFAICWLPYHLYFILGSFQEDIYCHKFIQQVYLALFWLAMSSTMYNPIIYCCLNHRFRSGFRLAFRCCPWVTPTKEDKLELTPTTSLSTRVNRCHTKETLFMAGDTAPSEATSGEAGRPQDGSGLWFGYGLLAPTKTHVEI
Settings: reported in Bioorganic & Medicinal Chemistry Letters 2003

Question: Which “functional NK2 receptor antagonistic properties” value does the source give for `CN(CC(CCN1CC(N2CCOCC2)C1)c1ccc(Cl)c(Cl)c1)C(=O)c1ccccc1` (stereo not shown) [N-[2-(3,4-dichlorophenyl)-4-(3-morpholin-4-ylazetidin-1-yl)butyl]-N-methylbenzamide] here?
Answer: The value was “functional NK2 receptor antagonistic properties”.
